For assay [1], the target named is T1, MAD2L2-Rev1 complex (myc-MAD2L2 and YFP-Rev1) (Homo sapiens, UniProt Q9UI95).
T1 construct: stoichiometry from the docking model; with DNA repair protein REV1
Put plainly: co-immunoprecipitation (GFP-Trap), immunoblot. In kind it is cell-based. The settings on record: HEK293 cells, 50 μM compound, 24 h.

In assay [2] the target is T2, GST-MAD2L2 (Homo sapiens, UniProt Q9UI95).
T2 construct: GST fusion, expressed in E. coli BL21 Star, standard GST purification, amine-immobilised on graphene chip
T2 sequence (Q9UI95 whole entry, the tested form may be a part): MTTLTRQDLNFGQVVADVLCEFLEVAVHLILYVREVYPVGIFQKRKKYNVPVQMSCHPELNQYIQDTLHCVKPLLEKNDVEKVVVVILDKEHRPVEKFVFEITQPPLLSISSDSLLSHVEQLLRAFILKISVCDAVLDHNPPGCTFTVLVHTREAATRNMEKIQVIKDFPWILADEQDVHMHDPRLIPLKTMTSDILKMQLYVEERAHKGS
Description: field-effect biosensing (FEB, Agile R100), immobilised protein. In kind it is binding. As to conditions: PBS; compound 1-50 μM; Hill fit or kon/koff.

The target in assay [3] is T2, GST-MAD2L2. The assay is described as above. The class given is binding. As to conditions: PBS; compound 1-50 μM; Hill fit or kon/koff; unreliable.

The term Kd denotes the equilibrium constant for the complex coming apart. High values mean weaker binding, low ones tighter binding.

T1 sequence (Q9UI95 whole entry): as the sequence (Q9UI95 whole entry, the tested form may be a part) above
T1 sequence (Q9UBZ9 whole entry partner): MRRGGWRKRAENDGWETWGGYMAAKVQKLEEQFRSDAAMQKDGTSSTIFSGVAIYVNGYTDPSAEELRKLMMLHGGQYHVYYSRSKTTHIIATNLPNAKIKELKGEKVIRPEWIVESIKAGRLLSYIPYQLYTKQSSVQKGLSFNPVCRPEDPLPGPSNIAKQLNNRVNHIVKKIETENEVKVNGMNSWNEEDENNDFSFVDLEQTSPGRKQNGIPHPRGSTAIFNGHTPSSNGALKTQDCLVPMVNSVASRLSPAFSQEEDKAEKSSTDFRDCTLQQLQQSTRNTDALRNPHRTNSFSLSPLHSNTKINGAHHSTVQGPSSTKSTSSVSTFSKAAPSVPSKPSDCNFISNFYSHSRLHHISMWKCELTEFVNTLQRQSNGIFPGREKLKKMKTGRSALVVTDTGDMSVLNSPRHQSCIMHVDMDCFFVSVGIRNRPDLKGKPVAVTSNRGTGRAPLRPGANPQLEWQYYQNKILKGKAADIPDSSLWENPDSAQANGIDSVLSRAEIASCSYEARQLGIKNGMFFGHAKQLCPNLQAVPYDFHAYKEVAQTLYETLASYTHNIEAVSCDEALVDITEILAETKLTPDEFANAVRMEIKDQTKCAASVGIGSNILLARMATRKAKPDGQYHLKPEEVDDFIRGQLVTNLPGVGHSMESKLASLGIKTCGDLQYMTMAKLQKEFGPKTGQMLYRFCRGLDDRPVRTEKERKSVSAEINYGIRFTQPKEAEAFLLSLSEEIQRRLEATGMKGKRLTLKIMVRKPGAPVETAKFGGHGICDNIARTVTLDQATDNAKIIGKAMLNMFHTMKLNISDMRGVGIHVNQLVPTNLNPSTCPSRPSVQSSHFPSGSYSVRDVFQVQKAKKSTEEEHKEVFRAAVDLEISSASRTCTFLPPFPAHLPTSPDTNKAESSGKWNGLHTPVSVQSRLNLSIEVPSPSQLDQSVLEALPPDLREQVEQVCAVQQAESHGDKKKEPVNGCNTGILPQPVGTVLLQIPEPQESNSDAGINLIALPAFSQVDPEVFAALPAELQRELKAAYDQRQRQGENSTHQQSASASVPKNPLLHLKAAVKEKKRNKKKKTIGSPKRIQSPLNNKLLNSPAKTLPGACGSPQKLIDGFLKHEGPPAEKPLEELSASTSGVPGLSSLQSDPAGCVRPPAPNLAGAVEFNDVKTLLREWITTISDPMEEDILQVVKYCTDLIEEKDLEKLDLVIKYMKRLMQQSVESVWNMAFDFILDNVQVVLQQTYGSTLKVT

As to ZINC25496030 [c#3], the “% reduction of MAD2L2-Rev1 binding at 50 μM” value in assay [1] is given as ~ 80%. Also, at GST-MAD2L2 [2], the Kd was determined as 44.9 ± 2.06 µM. Take ZINC97017995 [c#2]: on GST-MAD2L2 [3], the kD was determined as 310.8 ± 32.96 µM.

For the origin of these results see article PMC8838411, “Disrupting the MAD2L2-Rev1 Complex Enhances Cell Death upon DNA Damage” (Molecules, 2022).
